This passage reports inhibition and Activity results from ChEMBL document CHEMBL3632570, “Structure-Guided Design of Novel l-Cysteine Derivatives as Potent KSP Inhibitors” (ACS Med Chem Lett, 2015).

In series [1] the target is T1, Kinesin-like protein KIF22 (Homo sapiens) (UniProt Q14807).
T1 sequence (whole entry): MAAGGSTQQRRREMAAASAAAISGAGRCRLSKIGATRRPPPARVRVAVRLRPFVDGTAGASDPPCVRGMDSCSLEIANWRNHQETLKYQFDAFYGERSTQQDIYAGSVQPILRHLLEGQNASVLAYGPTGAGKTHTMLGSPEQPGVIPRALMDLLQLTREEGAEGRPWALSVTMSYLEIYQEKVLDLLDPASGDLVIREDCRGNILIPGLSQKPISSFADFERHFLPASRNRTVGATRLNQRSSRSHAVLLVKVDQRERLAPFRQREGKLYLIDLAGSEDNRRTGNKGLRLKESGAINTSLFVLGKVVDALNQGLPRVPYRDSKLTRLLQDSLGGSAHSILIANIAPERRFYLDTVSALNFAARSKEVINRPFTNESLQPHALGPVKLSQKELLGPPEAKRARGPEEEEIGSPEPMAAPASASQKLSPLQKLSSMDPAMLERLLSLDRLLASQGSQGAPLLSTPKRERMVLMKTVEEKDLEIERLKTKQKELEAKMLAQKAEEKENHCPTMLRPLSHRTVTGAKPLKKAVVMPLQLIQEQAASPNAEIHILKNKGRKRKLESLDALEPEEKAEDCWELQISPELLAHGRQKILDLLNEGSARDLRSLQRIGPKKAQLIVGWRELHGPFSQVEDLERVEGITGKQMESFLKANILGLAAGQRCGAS
Briefly: Inhibition of microtubule-stimulated Kid motor domain (1 to 336) (unknown origin) ATPase activity at 6.3 uM.

Series [2] has as its target T2, Chromosome-associated kinesin KIF4A (Homo sapiens) (UniProt O95239).
T2 sequence (whole entry): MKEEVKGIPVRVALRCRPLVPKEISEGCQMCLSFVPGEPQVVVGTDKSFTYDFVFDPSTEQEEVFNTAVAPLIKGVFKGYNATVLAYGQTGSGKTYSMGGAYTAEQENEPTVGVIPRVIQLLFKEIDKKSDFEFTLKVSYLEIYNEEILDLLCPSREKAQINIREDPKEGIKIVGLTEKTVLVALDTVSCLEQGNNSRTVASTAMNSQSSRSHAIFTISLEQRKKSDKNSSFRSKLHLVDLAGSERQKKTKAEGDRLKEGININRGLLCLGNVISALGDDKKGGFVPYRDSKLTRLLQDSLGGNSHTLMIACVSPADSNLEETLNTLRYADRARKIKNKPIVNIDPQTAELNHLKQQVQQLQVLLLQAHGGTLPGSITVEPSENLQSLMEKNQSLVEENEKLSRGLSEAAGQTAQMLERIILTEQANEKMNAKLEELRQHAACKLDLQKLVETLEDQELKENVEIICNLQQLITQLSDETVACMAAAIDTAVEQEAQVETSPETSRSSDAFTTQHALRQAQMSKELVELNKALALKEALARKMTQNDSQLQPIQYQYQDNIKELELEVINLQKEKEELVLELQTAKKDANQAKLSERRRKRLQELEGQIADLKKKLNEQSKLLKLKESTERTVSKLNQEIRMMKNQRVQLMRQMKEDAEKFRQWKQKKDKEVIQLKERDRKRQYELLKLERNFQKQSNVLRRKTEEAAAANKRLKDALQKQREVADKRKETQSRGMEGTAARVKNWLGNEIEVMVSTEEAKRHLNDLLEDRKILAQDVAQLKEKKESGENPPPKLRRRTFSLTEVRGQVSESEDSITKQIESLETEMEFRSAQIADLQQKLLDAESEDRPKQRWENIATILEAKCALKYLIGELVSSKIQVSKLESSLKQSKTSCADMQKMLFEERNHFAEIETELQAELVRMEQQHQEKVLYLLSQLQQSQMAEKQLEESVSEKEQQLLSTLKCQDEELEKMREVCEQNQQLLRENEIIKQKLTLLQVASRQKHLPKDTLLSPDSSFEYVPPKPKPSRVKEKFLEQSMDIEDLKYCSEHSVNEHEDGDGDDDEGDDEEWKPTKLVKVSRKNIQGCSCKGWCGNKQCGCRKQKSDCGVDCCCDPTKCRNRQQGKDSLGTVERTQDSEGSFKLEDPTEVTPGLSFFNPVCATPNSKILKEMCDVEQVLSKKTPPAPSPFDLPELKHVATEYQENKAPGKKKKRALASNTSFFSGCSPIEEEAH
As to the kind of experiment: Inhibition of microtubule-stimulated KIF4A motor domain (1 to 346) (unknown origin) ATPase activity at 6.3 uM.

Series [3] addresses T3, Kinesin-like protein KIFC3 (Homo sapiens) (UniProt Q9BVG8).
T3 sequence (whole entry): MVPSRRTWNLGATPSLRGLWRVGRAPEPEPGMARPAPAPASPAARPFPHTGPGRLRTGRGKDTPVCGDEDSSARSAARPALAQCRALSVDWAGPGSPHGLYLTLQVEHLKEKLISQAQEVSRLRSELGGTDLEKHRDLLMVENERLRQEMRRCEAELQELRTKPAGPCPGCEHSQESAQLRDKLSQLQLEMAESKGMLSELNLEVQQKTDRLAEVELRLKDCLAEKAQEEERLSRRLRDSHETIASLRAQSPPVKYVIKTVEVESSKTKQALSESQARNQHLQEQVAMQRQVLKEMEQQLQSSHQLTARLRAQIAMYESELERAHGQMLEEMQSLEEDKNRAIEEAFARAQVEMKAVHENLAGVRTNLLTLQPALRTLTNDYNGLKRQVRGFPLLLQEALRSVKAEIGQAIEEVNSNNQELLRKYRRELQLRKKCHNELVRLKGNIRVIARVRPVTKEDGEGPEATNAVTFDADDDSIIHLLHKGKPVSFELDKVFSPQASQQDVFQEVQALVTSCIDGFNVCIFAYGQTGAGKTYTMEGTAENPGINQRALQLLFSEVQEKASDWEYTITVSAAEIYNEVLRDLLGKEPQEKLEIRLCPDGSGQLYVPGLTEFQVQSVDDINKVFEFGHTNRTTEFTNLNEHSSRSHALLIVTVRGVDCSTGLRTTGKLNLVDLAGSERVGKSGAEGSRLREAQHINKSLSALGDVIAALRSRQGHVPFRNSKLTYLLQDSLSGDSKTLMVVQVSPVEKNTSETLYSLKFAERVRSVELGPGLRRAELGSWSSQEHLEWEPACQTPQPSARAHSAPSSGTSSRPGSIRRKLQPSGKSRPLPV
Briefly: Inhibition of microtubule-stimulated KIFC3 motor domain (303 to 638) (unknown origin) ATPase activity at 6.3 uM.

For series [4], the system named is Mus musculus. As to the kind of experiment: Toxicity in athymic nude BALB/cAJcL mouse xenografted with HCT116 cells assessed as body weight loss at 25 mg/kg, iv administered on days 1,3,5,8,10 and 12 relative to vehicle-treated control. The format is organism-based, HCT-116. As to conditions: in vivo.
The subject of series [5] is Mus musculus. As to the kind of experiment: Toxicity in athymic nude BALB/cAJcL mouse xenografted with HCT116 cells assessed as mortality at 25 mg/kg, iv administered on days 1,3,5,8,10 and 12. Format: organism-based, HCT-116. As to conditions: in vivo.

The structures appear in SMILES notation. Calls of active or inactive are those of the source. The calls are words filed in the database; no cut-off is given here.

In the case of `COc1ccc(C2(SC[C@H](N)C(=O)O)c3ccccc3CCc3ccccc32)cc1`, the inhibition result in series [1], in series [2] and in series [3] was “inactive” in each case. The results for the Activity entry in the series with Mus musculus [4] and with Mus musculus [5] were “Toxic” and “Non-toxic”, respectively.
As to `N[C@@H](CSC1(c2ccc(C(F)(F)F)cc2)c2ccccc2CCc2ccccc21)C(=O)O`, the inhibition entry in series [1], in series [2] and in series [3] was “inactive” each time. Further, the figures for the Activity result with Mus musculus [4] and in the series with Mus musculus [5] were “Toxic” and “Non-toxic”, respectively.
